Patent EP0036269A1, “Substituted benzamides” (BEECHAM GROUP PLC, priority 1980, dated 1981)
Read-outs that look alike come from different tables or passages of the source.

How the values were obtained:
Assay type in all cases: in vivo
[1] = tested on: apomorphine induced stereotypy; experiment: Inhibition of apomorphine-induced biting in the rat; details: apomorphine 5 mg/kg sc, compounds administered subcutaneously 15 minutes after apomorphine, stereotypy scored for 90 mins
Experimental: (§1) Compounds were also tested for their ability to inhibit apomorphine induced stereotypy in rodents. Inactivity in these tests may be indicative of a low propensity to produce extra pyramidal side effects in man. The tests used were as follows.
Apomorphine 5 mg/kg sc induces a stereotypic gnawing behaviour in rats which can be measured by a subjective scoring system; score O - animal behaving normally; score 1 - increased locomotion activity with occassional sniffing and licking; score 2 - persistent licking of the bars of the cage with occassional biting; score 3 - more sustained biting; score 4 - intense biting at a particular part of the cage, animal no longer moving about.
Animals are individually placed in wire cages and after being allowed to become acclimatised are injected with apomorphine 5 mg/kg sc. Stereotypy is scored at 10 min intervals for 90 mins after apomorphine. Compounds are administered subcutaneously 15 minutes after the apomorphine.

[2] = tested on: intra-gastric pressure in the rat; experiment: Increase in intragastric pressure in the rat; details: conscious restrained starved rats, 40 minute period after administration; for minimal effective dose: Rattus norvegicus, po, 40 min, read-out: minimum dose for activity
Experimental: The compounds of the Examples were tested for pharmacological activity in increasing intra-gastric pressure in the rat. Intragastric pressure changes were recorded from previously starved conscious and restrained rats using a fluid filled catheter inserted into the lumen of the stomach via a permanent gastric fistula. The catheter was connected to a physiological pressure transducer and pressure changes recorded on a hot wire pen recorder. In each animal a pre-dose period of 40 minutes was allowed to obtain a measure of spontaneous activity. An index of activity was obtained by measuring the average height of pressure waves during 10 minute periods. Values for 4 such periods were obtained during assessment of spontaneous activity and for the 40 minute period after the administration of the Compounds. Student "t" test was applied to the difference in average values obtained for spontaneous and post compound activity.

[3] = tested on: apomorphine induced stereotypy; experiment: Inhibition of apomorphine-induced climbing in the mouse; details: for ED50: sc, inhibition of climbing induced by apomorphine 1 mg/kg sc
Experimental: as §1
This test is based on that described by Protain, P. et al (1976) Psychopharmacol. 50, 1-6.
Apomorphine 1 mg/kg sc induced mice to climb the wall of a wire cage (inverted food hopper - 11 x 7.5 x 18 cm high). Mice acclimatised in their home cages in groups of 5 are placed under the hoppers immediately after the injection of apomorphine 1 mg/kg SC. At 10, 20 and 30 minutes after injection climbing behaviour scored. The mice are observed for 30 seconds and scored according to the position in which they spend the majority of time; score O - four paws on floor of cage; score 1 - 2 paws only on walls; score 2 - all four paws on wall of cage.
The scores at all 3 times for each mouse are summed for apomorphine only and for apomorphine plus compound groups of mice

With `COc1cc(N)c(Cl)cc1C(=O)NCC1CCCC2CCCCN2C1` (racemic) [Example 8, (±) 4-Amino-5-chloro-2-methoxy-N-[3'-(1'-azabicyclo[5,4, O]-hendecyl-methyl)]-benzamide] as the molecule, how does the “Inhibition of apomorphine-induced biting” value [1] read?
The value was “inactive”.

`COc1cc(N)c(Cl)cc1C(=O)NCC1CC2CCCCN2C1` (racemic) [Example 12, (±) 4-Amino-5-chloro-2-methoxy-N-(2'-indolizidinyl-methyl)-benzamide] was tested. Which “Inhibition of apomorphine-induced biting” value [1] did it give?
Its value is “inactive”.

How did the “minimum dose for activity” value ([2]; Subcut) turn out when `COc1cc(N)c(Cl)cc1C(=O)NCC1CCC2CCCCN2C1` (single isomer, unassigned) [2 (Isomer B), (±) 4-Amino-5-chloro-2-methoxy-N-(3'-quinolizidinyl-methyl)-benzamide] was run?
The value was 5.0 mg/kg.

What about the “minimum dose for activity” value ([2]; oral) of the same molecule?
Its value is 5.0 mg/kg.

What about the “Inhibition of apomorphine-induced biting” value [1] of the same molecule?
Its value is “inactive”.

With `COc1cc(N)c(Cl)cc1C(=O)NCC1CCCN2CCCCC12` (single isomer, unassigned) [4 (Isomer B), (±) 4-Amino-5-chloro-2-methoxy-N-(1'-guinolizidinyl-methyl)-benzamide] as the molecule, how does the “Inhibition of apomorphine-induced biting” value [1] read?
Its value is “inactive”.

Which minimal effective dose ([2]; Subcut) does the source give for `COc1cc(N)c(Cl)cc1C(=O)NCC1CCC2CCCCN21` (single isomer, unassigned) [14 (Isomer B), (±) 4-Amino-5-chloro-2-methoxy-N-(3'-indolizidiny-methyl)-benzamide] here?
The minimal effective dose was 0.2 mg/kg.

And the “Inhibition of apomorphine-induced biting” value [1]?
Its value is “inactive”.

And the ED50 [3]?
Its ED50 is 15 mg/kg.

What does the source list for `COc1cc(N)c(Cl)cc1C(=O)NCC1CCC2CCCCN2C1` (single isomer, unassigned) [Example 2 (Isomer A), (±) 4-Amino-5-chloro-2-methoxy-N-(3'-quinolizidinyl-methyl)-benzamide]?
minimal effective dose ([2]; oral): 5 mg/kg; minimum dose for activity ([2]; Subcut): 0.2 mg/kg; Inhibition of apomorphine-induced biting [1]: inactive; Inhibition of climbing ([3]; apomorphine 1 mg/kg sc, climbing scored at 10, 20 and 30 minutes): inactive

For `COc1cc(N)c(Cl)cc1C(=O)NCC1CCCN2CCCCC12` (single isomer, unassigned) [Example 4 (Isomer A), (±) 4-Amino-5-chloro-2-methoxy-N-(1'-guinolizidinyl-methyl)-benzamide], which “Inhibition of apomorphine-induced biting” value [1] is on record?
The value was “inactive”.

Which “Inhibition of apomorphine-induced biting” value [1] does the source give for `COc1cc(N)c(Cl)cc1C(=O)NCC1CCC2CCCCN21` (single isomer, unassigned) [Example 14 (Isomer A), (±) 4-Amino-5-chloro-2-methoxy-N-(3'-indolizidiny-methyl)-benzamide] here?
Its value is “inactive”.

And the ED50 ([3]; Mus musculus, read-out: ED50)?
The ED50 was 20 mg/kg.
